Reference: patent publication US10081631B2, “2-(1H-indazol-3-yl)-1H-imidazo[4,5-C]pyridine and therapeutic uses thereof” (Samumed, LLC, priority 2014, dated 2018)
pEC50, pIC50: −log10 of the molar value.

How the values were obtained:
[1] = tested on: Wnt activity (Sp5-Luc reporter, SW480 colon carcinoma cells); assay: Screening assay for Wnt activity: Sp5-Luc reporter gene assay in SW480 cells; type: cell-based; details: Homo sapiens, 42 h incubation, luminescence
Excerpt: The screening assay for Wnt activity is described as follows. Reporter cell lines can be generated by stably transducing cancer cell lines (e.g., colon cancer) or primary cells (e.g., IEC-6 intestinal cells) with a lentiviral construct that includes a Wnt-responsive promoter driving expression of the firefly luciferase gene.
SW480 colon carcinoma cells were transduced with a lentiviral vector expressing luciferase with a human Sp5 promoter consisting of a sequence of eight TCF/LEF binding sites. SW480 cells stably expressing the Sp5-Luc reporter gene and a hygromycin resistance gene were selected by treatment with 150 μg/ml of hygromycin for 7 days. These stably transduced SW480 cells were expanded in cell culture and used for all further screening activities. For Sp5-Luc reporter gene assays, the cells were plated at 10,000 cells/well in 96-well plates with growth medium containing 10% fetal calf serum and incubated overnight at 37° C. and 5% CO2. Each compound was dissolved in DMSO as a 10 mM stock in standard j-vials and used to prepare compound source plates in dose-response format with 3-fold serial dilutions and a 10 mM top concentration. Compound transfer from serially diluted source plates to assay plates containing the cells was accomplished using a pintool (Multimek 96, Beckman equipped with V&P Scientific FP1S50H pins) based liquid handling protocol. This protocol used a slotted pin to transfer 50 nl of compound from a source plate well to an assay plate well containing 50 μl of cells in growth medium. […] Control wells received 50 nl of DMSO treatment for normalization and calculating IC50 values. The treated cells were incubated at 37° C. and 5% CO2 for an additional forty-two hours. Following incubation, the growth medium was removed and 50 μl of BrightGlo luminescence reagent (Promega) was added to each well of the 96-well assay plates. The plates were placed on an orbital shaker for 5 min and then luminescence was quantified on the Victor3 (Perkin Elmer) plate reader. Readings were normalized to DMSO only treated cells, and normalized activities were utilized for IC50 calculations using the dose-response log (inhibitor) vs. response-variable slope (four parameters) nonlinear regression feature available in GraphPad Prism 5.0 or 6.0.

[2] = tested on: primary human fibroblasts derived from IPF patients (LL29 cells); assay: Inhibition of fibrosis: TGF-β1-treated primary human fibroblasts from IPF patients (LL29), αSMA staining; type: cell-based; details: Fibroblast, 96 h, TGF-β1 20 ng/mL, 4 days, % αSMA-positive cells
Excerpt: The above synthesized compounds were screened using primary human fibroblasts (derived from IPF patients) treated with TGF-β1 to determine their ability to inhibit the fibrotic process.
Primary human fibroblasts derived from IPF patients (LL29 cells) [^1Xiaoqiu Liu, et. al., “Fibrotic Lung Fibroblasts Show Blunted Inhibition by cAMP Due to Deficient cAMP Response Element-Binding Protein Phosphorylation”, Journal of Pharmacology and Experimental Therapeutics (2005), 315(2), 678-687; ^2Watts, K. L., et. al., “RhoA signaling modulates cyclin D1 expression in human lung fibroblasts; implications for idiopathic pulmonary fibrosis”, Respiratory Research (2006), 7(1), 88] were obtained from American Type Culture Collection (ATCC) and expanded in F12 medium supplemented with 15% Fetal Bovine Serum and Penicillin/Streptomycin.
Each compound was dissolved in DMSO as a 10 mM stock and used to prepare compound source plates. Serial dilution (1:2, 11-point dose-response curves from 10 μM to 1.87 nM) and compound transfer was performed using the ECHO 550 (Labcyte, Sunnyvale, Calif.) into 384-well clear bottom assay plates (Greiner Bio-One) with appropriate DMSO backfill for a final DMSO concentration of 0.1%. LL29 cells were plated at 1,500 cells/well in 80 μl/well F12 medium supplemented with 1% Fetal Bovine Serum. One hour after addition of the cells, TGF-β1 (Peprotech; 20 ng/mL) was added to the plates to induce fibrosis (ref 1 and 2 above). Wells treated with TGF-β1 and containing DMSO were used as controls. Cells were incubated at 37° C. and 5% CO2 for 4 days. Following incubation for 4 days, SYTOX green nucleic acid stain (Life Technologies [Thermo Fisher Scientific]) was added to the wells at a final concentration of 1 uM and incubated at room temperature for 30 min. Cells were then fixed using 4% formaldehyde (Electron Microscopy Sciences), washed 3 times with PBS followed by blocking and permeabilization using 3% Bovine Serum Albumin (BSA; Sigma) and 0.3% Triton X-100 (Sigma) in PBS. Cells were then stained with antibody specific to α-smooth muscle actin (αSMA; Abcam) (ref 1 and 2 above) in 3% Bovine Serum Albumin (BSA; Sigma) and 0.3% Triton X-100 (Sigma) in PBS, and incubated overnight at 4° C. Cells were then washed 3 times with PBS, followed by incubation with Alexa Flor-647 conjugated secondary antibody (Life Technologies [Thermo Fisher Scientific]) and DAPI at room temperature for 1 hour. Cells were then washed 3 times with PBS and plates were sealed for imaging. αSMA staining was imaged by excitation at 630 nm and emission at 665 nm and quantified using the Compartmental Analysis program on the CellInsight CX5 (Thermo Scientific). Dead or apoptotic cells were excluded from analysis based on positive SYTOX green staining. % of total cells positive for αSMA were counted in each well and normalized to the average of 11 wells treated with TGF-β1 on the same plate using Dotmatics' Studies Software. The normalized averages (fold change over untreated) of 3 replicate wells for each compound concentration were used to create dose-responses curves and EC50 values were calculated using non-linear regression curve fit in the Dotmatics' Studies Software. The EC50 values are reported.

SMILES | pIC50 [1] | pEC50 [2]
CN1CCN(c2nccc3[nH]c(-c4n[nH]c5ccc(-c6cncc(NC(=O)C7CCCC7)c6)cc45)nc23)CC1 [Compound 229, N-(5-(3-(4-(4-Methylpiperazin-1-yl)-1H-imidazo[4,5-c]pyridin-2-yl)-1H-indazol-5-yl)pyridin-3-yl)cyclopentanecarboxamide] | 6.15 | 5.00
Cc1ccc(-c2nccc3[nH]c(-c4n[nH]c5ccc(-c6cncc(NC(=O)CC(C)(C)C)c6)cc45)nc23)s1 [Compound 354, 3,3-Dimethyl-N-(5-(3-(4-(5-methylthiophen-2-yl)-1H-imidazo[4,5-c]pyridin-2-yl)-1H-indazol-5-yl)pyridin-3-yl)butanamide] | 7.90 | 7.07
CC(C)Nc1cncc(-c2ccc3[nH]nc(-c4nc5c(-c6cccnc6)nccc5[nH]4)c3c2)c1 [Compound 90, N-Isopropyl-5-(3-(4-(pyridin-3-yl)-1H-imidazo[4,5-c]pyridin-2-yl)-1H-indazol-5-yl)pyridin-3-amine] | 8.40 | 8.05
CC(C)C(=O)Nc1cncc(-c2ccc3[nH]nc(-c4nc5c(N6CCN(C)CC6)nccc5[nH]4)c3c2)c1 [Compound 217, N-(5-(3-(4-(4-Methylpiperazin-1-yl)-1H-imidazo[4,5-c]pyridin-2-yl)-1H-indazol-5-yl)pyridin-3-yl)isobutyramide] | 6.61 | 5.35
Fc1ccc(-c2nccc3[nH]c(-c4n[nH]c5ccc(-c6cncc(CN7CCCC7)c6)cc45)nc23)cc1 [Compound 40, 4-(4-Fluorophenyl)-2-(5-(5-(pyrrolidin-1-ylmethyl)pyridin-3-yl)-1H-indazol-3-yl)-1H-imidazo[4,5-c]pyridine] | 7.12 | 7.62
O=C(Nc1cncc(-c2ccc3[nH]nc(-c4nc5c(-c6ccsc6)nccc5[nH]4)c3c2)c1)C1CC1 [Compound 253, N-(5-(3-(4-(Thiophen-3-yl)-1H-imidazo[4,5-c]pyridin-2-yl)-1H-indazol-5-yl)pyridin-3-yl)cyclopropanecarboxamide] | 6.90 | 6.26
O=C(Nc1cncc(-c2ccc3[nH]nc(-c4nc5c(-c6cccs6)nccc5[nH]4)c3c2)c1)C1CC1 [Compound 305, N-(5-(3-(4-(Thiophen-2-yl)-1H-imidazo[4,5-c]pyridin-2-yl)-1H-indazol-5-yl)pyridin-3-yl)cyclopropanecarboxamide] | 8.40 | 7.66
CS(=O)(=O)NCc1cc(F)cc(-c2nccc3[nH]c(-c4n[nH]c5ccc(-c6cncc(NC(=O)c7ccccc7)c6)cc45)nc23)c1 [Compound 401, N-(5-(3-(4-(3-Fluoro-5-(methylsulfonamidomethyl)phenyl)-1H-imidazo[4,5-c]pyridin-2-yl)-1H-indazol-5-yl)pyridin-3-yl)benzamide] | 7.49 | 5.00
Fc1cccc(-c2nccc3[nH]c(-c4n[nH]c5ccc(-c6cncc(OC7CCNCC7)c6)cc45)nc23)c1 [Compound 1776, 4-(3-Fluorophenyl)-2-(5-(5-(piperidin-4-yloxy)pyridin-3-yl)-1H-indazol-3-yl)-1H-imidazo[4,5-c]pyridine] | 6.11 | 7.42
CC(C)C(=O)Nc1cncc(-c2ccc3[nH]nc(-c4nc5c(-c6ccccc6F)nccc5[nH]4)c3c2)c1 [Compound 61, N-(5-(3-(4-(2-Fluorophenyl)-1H-imidazo[4,5-c]pyridin-2-yl)-1H-indazol-5-yl)pyridin-3-yl)isobutyramide] | 8.30 | 7.10
O=C(CC1CCNCC1)Nc1cncc(-c2ccc3[nH]nc(-c4nc5c(-c6cccc(F)c6)nccc5[nH]4)c3c2)c1 [Compound 1777, N-(5-(3-(4-(3-Fluorophenyl)-1H-imidazo[4,5-c]pyridin-2-yl)-1H-indazol-5-yl)pyridin-3-yl)-2-(piperidin-4-yl)acetamide] | 6.61 | 6.97
O=C(Nc1cncc(-c2ccc3[nH]nc(-c4nc5c(-c6ccc(F)cc6)nccc5[nH]4)c3c2)c1)C1CCC1 [Compound 46, N-(5-(3-(4-(4-Fluorophenyl)-1H-imidazo[4,5-c]pyridin-2-yl)-1H-indazol-5-yl)pyridin-3-yl)cyclobutanecarboxamide] | 8.00 | 8.05
CCNCc1cncc(-c2ccc3[nH]nc(-c4nc5c(-c6ccccn6)nccc5[nH]4)c3c2)c1 [Compound 136, N-((5-(3-(4-(Pyridin-2-yl)-1H-imidazo[4,5-c]pyridin-2-yl)-1H-indazol-5-yl)pyridin-3-yl)methyl)ethanamine] | 5.51 | 8.05
CN1CCN(c2nccc3[nH]c(-c4n[nH]c5ccc(-c6cncc(NC(=O)CC(C)(C)C)c6)cc45)nc23)CC1 [Compound 224, 3,3-Dimethyl-N-(5-(3-(4-(4-methylpiperazin-1-yl)-1H-imidazo[4,5-c]pyridin-2-yl)-1H-indazol-5-yl)pyridin-3-yl)butanamide] | 6.17 | 5.96
Fc1cccc(-c2nccc3[nH]c(-c4n[nH]c5ccc(C6CCNCC6)cc45)nc23)c1 [Compound 1769, 4-(3-Fluorophenyl)-2-(5-(piperidin-4-yl)-1H-indazol-3-yl)-1H-imidazo[4,5-c]pyridine] | 5.63 | 6.17
c1cc2[nH]c(-c3n[nH]c4ccc(-c5cncc(CNCC6CCCC6)c5)cc34)nc2c(-c2ccoc2)n1 [Compound 284, 1-Cyclopentyl-N-((5-(3-(4-(furan-3-yl)-1H-imidazo[4,5-c]pyridin-2-yl)-1H-indazol-5-yl)pyridin-3-yl)methyl)methanamine] | < 5.00 | 8.05
CN(C)Cc1cncc(-c2cc(F)c3[nH]nc(-c4nc5c(-c6cc(F)cc(CNS(C)(=O)=O)c6)nccc5[nH]4)c3c2)c1 [Compound 844, N-(3-(2-(5-(5-((Dimethylamino)methyl)pyridin-3-yl)-7-fluoro-1H-indazol-3-yl)-1H-imidazo[4,5-c]pyridin-4-yl)-5-fluorobenzyl)methanesulfonamide] | 7.02 | 
CC(C)CC(=O)Nc1cncc(-c2ccc3[nH]nc(-c4nc5c(-c6cc(F)cc(OCCN7CCCC7)c6)nccc5[nH]4)c3c2)c1 [Compound 2120, N-(5-(3-(4-(3-Fluoro-5-(2-(pyrrolidin-1-yl)ethoxy)phenyl)-1H-imidazo[4,5-c]pyridin-2-yl)-1H-indazol-5-yl)pyridin-3-yl)-3-methylbutanamide] | 6.52 | 
CN(C)Cc1cncc(-c2cc3c(-c4nc5c(-c6ccsc6)nccc5[nH]4)n[nH]c3cc2F)c1 [Compound 1132, 1-(5-(6-Fluoro-3-(4-(thiophen-3-yl)-1H-imidazo[4,5-c]pyridin-2-yl)-1H-indazol-5-yl)pyridin-3-yl)-N,N-dimethylmethanamine] | 5.43 | 
